# Assay results reported in patent US9200016B2, “Substituted 6, 7-dialkoxy-3-isoquinoline derivatives as inhibitors of phosphodiesterase 10 (PDE 10A)” (Allergan, Inc., priority 2013, dated 2015).
# Structures can show the parent of a compound that is named as a salt.
# What was measured:
# PDE10A = PDE10A (Homo sapiens, UniProt Q9Y233); assay: Diaxonhit phosphodiesterase assay (TR-FRET, LANCE cAMP kit), PDE10A; type: biochemical
# Procedure: (§1) Diaxonhit Phosphodiesterase Assay (PDE10A and PDE4D3)
# The PDE assay is based on the homogenous time-resolved fluorescence resonance energy transfer (TR-FRET) technology (LANCE® from Perkin Elmer). […] When there is PDE activity, resulting in the degradation of the cyclic nucleotide, the complex is not formed and a decrease in signal is observed.
# The phosphodiesterase assay was developed using the LANCE® cAMP kit (PerkinElmer). The assay buffer contained HBSS with 5 mM HEPES, 0.1% BSA, and 1.5 mM MgCl2, pH 7.4. […] Chemical compounds were dissolved in DMSO (final concentration 2% (v/v)).
# (§2) In a 384-well plate, 2 μL of the inhibitor and 3 μL PDE were added to the well, followed by the addition of 5 μl substrate biotinylated cAMP (1:5). After 60 min incubation at room temperature, 10 μL of assay detection mixture was added to the assay plate. After 1 h at room temperature, the signal was measured on EnVision™ (Perkin Elmer).
# PDE4D3 = PDE4D3 (Homo sapiens (Human), UniProt Q08499); assay: Diaxonhit phosphodiesterase assay (TR-FRET, LANCE cAMP kit), PDE4D3; type: biochemical
# Source text: as §1
# The PDE assay is based on the homogenous time-resolved fluorescence resonance energy transfer (TR-FRET) technology (LANCE® from Perkin Elmer). This competition based assay is formatted using a cAMP specific antibody labeled with the dye, Alexa Fluor® 647, biotin-cAMP and streptavidin labeled with Europium (Eu-SA). As the complex of Eu-SA/biotin-cAMP/Alexa Fluor 647 labeled antibody is formed, an increase in signal is generated. When there is PDE activity, resulting in the degradation of the cyclic nucleotide, the complex is not formed and a decrease in signal is observed.
# The phosphodiesterase assay was developed using the LANCE® cAMP kit (PerkinElmer). The assay buffer contained HBSS with 5 mM HEPES, 0.1% BSA, and 1.5 mM MgCl2, pH 7.4. PDE10A (BPS Bioscience) was used at 200 pg/well (with a specific activity of 3200 pmole/min/μg with assay conditions: 10 mM Tris-HCl, pH 7.4, 10 mM MgCl2, 1 mM MnCl2, 200 μM cAMP, 2.5 kU 5′ nucleotidase, 37° C., 20 min) and PDE4D3 (BPS Bioscience) was used at 100 pg/well (with a specific activity of 32713 pmole/min/μg with assay conditions: 10 mM Tris-HCl, pH 7.4, 10 mM MgCl2, 1 mM MnCl2, 200 μM cAMP, 2.5 kU 5′ nucleotidase, 37° C., 20 min). The Biotin-cAMP tracer, supplied in 10 mmol/L Tris-HCl buffered (pH 8.0) salt solution with 1 mmol/L ethylenediaminetetraacetic acid (EDTA), 0.1% bovine serum albumin (BSA), and 0.05% sodium azide, is used at a dilution of 1/375. The assay detection mixture contained the LANCE Eu-W8044 labeled streptavidin 1/2250 (supplied in 50 mmol/L Tris-HCl buffered (pH 7.8) salt solution with 0.9% sodium chloride (NaCl), 0.1% BSA, and 0.05% sodium azide) and the Alexa Fluor® 647-anti cAMP antibody 1/200 (supplied in 50 mmol/L Tris-HCl buffered (pH 7.8) salt solution with 0.9% NaCl, 0.1% BSA, and 0.05% sodium azide). Chemical compounds were dissolved in DMSO (final concentration 2% (v/v)).
# as §2
# Sequence of PDE4D3 (Q08499 other isoform, or with tags, fused parts or gaps): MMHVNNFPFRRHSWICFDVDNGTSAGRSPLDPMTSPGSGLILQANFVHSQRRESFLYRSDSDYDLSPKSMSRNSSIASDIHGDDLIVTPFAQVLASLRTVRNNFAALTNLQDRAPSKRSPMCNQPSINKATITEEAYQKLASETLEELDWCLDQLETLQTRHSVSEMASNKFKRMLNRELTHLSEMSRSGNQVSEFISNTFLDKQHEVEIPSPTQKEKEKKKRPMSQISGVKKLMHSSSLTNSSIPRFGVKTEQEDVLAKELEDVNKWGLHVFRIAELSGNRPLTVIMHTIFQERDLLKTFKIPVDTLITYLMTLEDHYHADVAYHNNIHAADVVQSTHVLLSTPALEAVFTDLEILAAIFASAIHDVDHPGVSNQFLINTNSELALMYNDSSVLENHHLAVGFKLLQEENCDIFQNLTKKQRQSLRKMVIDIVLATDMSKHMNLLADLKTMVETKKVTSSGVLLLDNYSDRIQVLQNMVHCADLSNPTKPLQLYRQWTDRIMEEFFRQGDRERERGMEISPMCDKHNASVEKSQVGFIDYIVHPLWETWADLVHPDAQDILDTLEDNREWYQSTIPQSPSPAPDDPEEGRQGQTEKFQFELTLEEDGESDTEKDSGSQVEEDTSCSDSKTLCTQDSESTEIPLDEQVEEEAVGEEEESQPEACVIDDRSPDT
# Sequence of PDE10A (Q9Y233 whole entry, looked up): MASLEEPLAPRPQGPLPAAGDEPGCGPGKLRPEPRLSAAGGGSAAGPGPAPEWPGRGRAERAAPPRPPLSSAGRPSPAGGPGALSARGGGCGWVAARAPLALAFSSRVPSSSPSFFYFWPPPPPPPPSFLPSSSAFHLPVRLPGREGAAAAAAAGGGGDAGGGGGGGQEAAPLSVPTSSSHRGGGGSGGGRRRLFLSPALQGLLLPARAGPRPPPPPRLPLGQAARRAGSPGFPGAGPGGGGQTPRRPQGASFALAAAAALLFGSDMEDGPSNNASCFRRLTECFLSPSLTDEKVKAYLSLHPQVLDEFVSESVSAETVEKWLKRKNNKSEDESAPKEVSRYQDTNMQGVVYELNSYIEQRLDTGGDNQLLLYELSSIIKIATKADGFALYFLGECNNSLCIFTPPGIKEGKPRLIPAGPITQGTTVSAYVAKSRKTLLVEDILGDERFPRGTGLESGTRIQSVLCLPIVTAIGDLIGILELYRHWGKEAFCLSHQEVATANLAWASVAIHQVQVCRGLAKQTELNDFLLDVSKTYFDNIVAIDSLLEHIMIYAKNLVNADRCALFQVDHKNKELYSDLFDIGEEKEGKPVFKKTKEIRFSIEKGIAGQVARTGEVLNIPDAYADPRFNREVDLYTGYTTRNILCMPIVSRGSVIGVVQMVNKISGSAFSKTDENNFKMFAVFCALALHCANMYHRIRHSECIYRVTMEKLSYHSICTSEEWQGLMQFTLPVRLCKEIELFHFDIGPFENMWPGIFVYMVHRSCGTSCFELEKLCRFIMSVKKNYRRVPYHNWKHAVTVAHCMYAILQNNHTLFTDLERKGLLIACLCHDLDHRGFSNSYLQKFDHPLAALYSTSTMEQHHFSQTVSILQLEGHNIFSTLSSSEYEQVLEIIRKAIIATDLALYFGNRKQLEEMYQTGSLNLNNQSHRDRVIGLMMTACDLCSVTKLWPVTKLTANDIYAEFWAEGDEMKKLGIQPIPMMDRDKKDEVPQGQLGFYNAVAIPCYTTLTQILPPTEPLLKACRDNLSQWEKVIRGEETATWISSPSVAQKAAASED
SMILES,IC50 (PDE10A) [µM],IC50 (PDE4D3) [nM]
"COc1cc2c(Cc3cnc4ccccc4c3)cncc2cc1O [Compound 30, 6-methoxy-4-(quinolin-3-ylmethyl)isoquinolin-7-ol dihydrochloride]",> 10,
"COc1cc2c(Cc3cnc4ccccc4c3)cnc(C3CCCCC3)c2cc1OC [Compound 71, 3-((1-cyclohexyl-6,7-dimethoxyisoquinolin-4-yl)methyl)quinoline dihydrochloride]",> 10,
"COc1cc2cncc(Cc3cnc4ccccc4c3)c2cc1O [Compound 29, 7-methoxy-4-(quinolin-3-ylmethyl)isoquinolin-6-ol dihydrochloride]",> 10,
"CCc1ncc(Cc2ccc3cccc(NC(=O)C(N)=O)c3n2)c2cc(OC)c(OC)cc12 [Compound 93, N^1-(2-((1-ethyl-6,7-dimethoxyisoquinolin-4-yl)methyl)quinolin-8-yl)oxalamide]",,398

# The next lines start with the values.
IC50 (PDE10A) [µM],IC50 (PDE4D3) [nM],SMILES
,194,"COCc1ncc(Cc2cnc3ccc(O)c(C(F)(F)F)c3c2)c2cc(OC)c(OC)cc12 [Compound 169, 3-((6,7-dimethoxy-1-(methoxymethyl)isoquinolin-4-yl)methyl)-5-(trifluoromethyl)quinolin-6-ol]"
,232,"CCCc1ncc(Cc2cnc3ccc(O)c(C(F)(F)F)c3c2)c2cc(OC)c(OC)cc12 [Compound 162, 3-((6,7-dimethoxy-1-propylisoquinolin-4-yl)methyl)-5-(trifluoromethyl)quinolin-6-ol]"
,439,"CCc1ncc(Cc2ccc3cccc(O)c3n2)c2cc(OC)c(OC)cc12 [Compound 83, 2-((1-ethyl-6,7-dimethoxyisoquinolin-4-yl)methyl)quinolin-8-ol]"
